Measurements taken from PubChem BioAssay AID2060885 (Molecular Pharmacology Branch, DTP, NCI, 2025).

Tested on: NCI-H23 complex spheroids with HUVEC/MSC, viability
Assay: Anticancer human tumor NCI-H23 cell line growth inhibition [RAS];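 note: spheroids exposed to compound for 7 days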;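 for viability, T/C: 100% = DMSO vehicle control viability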
Settings: for IC50: curve of first compound; for viability, T/C: stronger effect = lower value; active = viability on the fitted dose curve at most 10% of control; inactive = the rest
Method in brief: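 Tumour cells grown as complex spheroids with HUVEC endothelial cells and mesenchymal stem cells, treated with RAS pathway inhibitor combinations. Each agent spans half-log steps from near clinical Cmax, or 10 microM where Cmax is unknown.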

[1] = second compound 0.0316 µM, first compound 0.0316 µM
[2] = second compound 0.0316 µM, first compound 0.1 µM
[3] = second compound 0.0316 µM, first compound 0.316 µM
[4] = second compound 0.0316 µM, first compound 1 µM
[5] = second compound 0.0316 µM, first compound 3.16 µM
[6] = second compound 0.0316 µM, first compound 10 µM
[7] = second compound 0.1 µM, first compound 0.0316 µM
[8] = second compound 0.1 µM, first compound 0.1 µM
[9] = second compound 0.1 µM, first compound 0.316 µM
[10] = second compound 0.1 µM, first compound 1 µM
[11] = second compound 0.1 µM, first compound 3.16 µM
[12] = second compound 0.1 µM, first compound 10 µM
[13] = second compound 0.316 µM, first compound 0.0316 µM
[14] = second compound 0.316 µM, first compound 0.1 µM
[15] = second compound 0.316 µM, first compound 0.316 µM
[16] = second compound 0.316 µM, first compound 1 µM
[17] = second compound 0.316 µM, first compound 3.16 µM
[18] = second compound 0.316 µM, first compound 10 µM
[19] = second compound 1 µM, first compound 0.0316 µM
[20] = second compound 1 µM, first compound 0.1 µM
[21] = second compound 1 µM, first compound 0.316 µM
[22] = second compound 1 µM, first compound 1 µM
[23] = second compound 1 µM, first compound 3.16 µM
[24] = second compound 1 µM, first compound 10 µM
[25] = second compound 3.16 µM, first compound 0.0316 µM
[26] = second compound 3.16 µM, first compound 0.1 µM
[27] = second compound 3.16 µM, first compound 0.316 µM
[28] = second compound 3.16 µM, first compound 1 µM
[29] = second compound 3.16 µM, first compound 3.16 µM
[30] = second compound 3.16 µM, first compound 10 µM
[31] = second compound 10 µM, first compound 0.0316 µM
[32] = second compound 10 µM, first compound 0.1 µM
[33] = second compound 10 µM, first compound 0.316 µM
[34] = second compound 10 µM, first compound 1 µM
[35] = second compound 10 µM, first compound 3.16 µM
[36] = second compound 10 µM, first compound 10 µM

Cc1nc(N2CCC3(CC2)COC(C)C3N)c(CO)nc1Sc1ccnc(N)c1Cl (stereo unspecified) + C#Cc1c(F)ccc2cc(O)cc(-c3ncc4c(N5CC6CCC(C5)N6)nc(OCC56CCCN5CC(F)C6)nc4c3F)c12
391 nM: IC50 (second compound 0.316 µM)
< 31.6 nM: IC50 (second compound 10 µM)
inactive: viability, T/C [1] 101% | viability, T/C [2] 110% | viability, T/C [3] 68.5% | viability, T/C [4] 62.7% | viability, T/C [5] 42.8% | viability, T/C [6] 48.3% | viability, T/C [7] 115% | viability, T/C [8] 110% | viability, T/C [9] 64.8% | viability, T/C [10] 48.6% | viability, T/C [11] 44.2% | viability, T/C [12] 41.5% | viability, T/C [13] 106% | viability, T/C [14] 95.2% | viability, T/C [15] 51.4% | viability, T/C [16] 45.5% | viability, T/C [17] 36% | viability, T/C [18] 39.5% | viability, T/C [19] 78.7% | viability, T/C [20] 60.7% | viability, T/C [21] 45.2% | viability, T/C [22] 35.3% | viability, T/C [23] 35.2% | viability, T/C [24] 32.6% | viability, T/C [25] 57.8% | viability, T/C [26] 45.7% | viability, T/C [27] 35.8% | viability, T/C [28] 29.6% | viability, T/C [29] 30.9% | viability, T/C [30] 26.9% | viability, T/C [31] 38.1% | viability, T/C [32] 35.2% | viability, T/C [33] 31.7% | viability, T/C [34] 26.1% | viability, T/C [35] 26.8% | viability, T/C [36] 18.2%
66.2 nM: IC50 (second compound 3.16 µM)
769 nM: IC50 (second compound 0.1 µM)
> 10000 nM: IC50 (second compound 0.0316 µM)
216 nM: IC50 (second compound 1 µM)

NC1c2ccccc2OC12CCN(c1cnc3c(N4CCCc5ncccc54)n[nH]c3n1)CC2 (stereo unspecified) + C#Cc1c(F)ccc2cc(O)cc(-c3ncc4c(N5CC6CCC(C5)N6)nc(OCC56CCCN5CC(F)C6)nc4c3F)c12
175 nM: IC50 (second compound 0.316 µM)
inactive: viability, T/C [1] 69.3% | viability, T/C [2] 76.8% | viability, T/C [3] 47.3% | viability, T/C [4] 41.6% | viability, T/C [5] 35.7% | viability, T/C [6] 34% | viability, T/C [7] 74.9% | viability, T/C [8] 65% | viability, T/C [9] 45.8% | viability, T/C [10] 38.6% | viability, T/C [11] 33.9% | viability, T/C [12] 30.1% | viability, T/C [13] 76.3% | viability, T/C [14] 56.4% | viability, T/C [15] 40.3% | viability, T/C [16] 36.4% | viability, T/C [17] 31.4% | viability, T/C [18] 22.3% | viability, T/C [19] 58.4% | viability, T/C [20] 40.6% | viability, T/C [21] 32.8% | viability, T/C [22] 32.4% | viability, T/C [23] 21.7% | viability, T/C [24] 19.6% | viability, T/C [25] 38.5% | viability, T/C [26] 38.6% | viability, T/C [27] 31.5% | viability, T/C [28] 25.2% | viability, T/C [29] 21% | viability, T/C [30] 15.5% | viability, T/C [31] 28.4% | viability, T/C [32] 30.7% | viability, T/C [33] 19% | viability, T/C [34] 16.2% | viability, T/C [35] 15.5% | viability, T/C [36] 12.6%
< 31.6 nM: IC50 (second compound 3.16 µM) | IC50 (second compound 10 µM)
57 nM: IC50 (second compound 1 µM)
281 nM: IC50 (second compound 0.0316 µM)
268 nM: IC50 (second compound 0.1 µM)

Nc1ccn(C2OC(CO)C(O)C2(F)F)c(=O)n1 (stereo unspecified) + C#Cc1c(F)ccc2cc(O)cc(-c3ncc4c(N5CC6CCC(C5)N6)nc(OCC56CCCN5CC(F)C6)nc4c3F)c12
active: viability, T/C [1] 9.28% | viability, T/C [2] 9.72% | viability, T/C [3] 8.73% | viability, T/C [4] 9.82% | viability, T/C [7] 8.54% | viability, T/C [8] 7.52% | viability, T/C [9] 10.5% | viability, T/C [10] 8.63% | viability, T/C [13] 7.89% | viability, T/C [14] 5.29% | viability, T/C [15] 6.95% | viability, T/C [16] 7.88% | viability, T/C [19] 4.25% | viability, T/C [20] 5% | viability, T/C [21] 5.26% | viability, T/C [22] 7.16% | viability, T/C (second compound 3.16 µM, first compound 0.01 µM) 5.88% | viability, T/C [25] 3.82% | viability, T/C [26] 2.55% | viability, T/C [27] 3.3% | viability, T/C [28] 3.59% | viability, T/C (second compound 10 µM, first compound 0.01 µM) 5.01% | viability, T/C [31] 4.01% | viability, T/C [32] 2.92% | viability, T/C [33] 3.19% | viability, T/C [34] 3.79%
5.83 nM: IC50 (second compound 0.316 µM)
< 3.16 nM: IC50 (second compound 3.16 µM) | IC50 (second compound 10 µM)
5.53 nM: IC50 (second compound 0.0316 µM)
4.97 nM: IC50 (second compound 1 µM)
5.82 nM: IC50 (second compound 0.1 µM)
inactive: viability, T/C (second compound 0.0316 µM, first compound 0.00316 µM) 79.1% | viability, T/C (second compound 0.0316 µM, first compound 0.01 µM) 19.3% | viability, T/C (second compound 0.1 µM, first compound 0.00316 µM) 86.3% | viability, T/C (second compound 0.1 µM, first compound 0.01 µM) 17.8% | viability, T/C (second compound 0.316 µM, first compound 0.00316 µM) 88.8% | viability, T/C (second compound 0.316 µM, first compound 0.01 µM) 15.8% | viability, T/C (second compound 1 µM, first compound 0.00316 µM) 74.8% | viability, T/C (second compound 1 µM, first compound 0.01 µM) 12.1% | viability, T/C (second compound 3.16 µM, first compound 0.00316 µM) 45.2% | viability, T/C (second compound 10 µM, first compound 0.00316 µM) 23.2%
